The record followed here is US20220073495A1 (priority 2020, published 2022).

Like-named read-outs stand apart in the source and are kept apart here.

Data set [1] deals with A/WSN/33. The data set can be described thus: microbe, parasite or virus in culture. In kind it is cell-based, influenza virus.
Data set [2] in a line: in vitro. Conditions: human.
The subject of data set [3] is A549 cells. Conditions: human.
In data set [4] the test system is viral M mRNA. The data set can be described thus: smRNA-FISH of M mRNA in WSN-infected cells. Conditions: 2.5 μM, WSN MOI 2 for 8 h. Format: cell-based, influenza virus (WSN).
Data set [5] has as its system A549 cells. The data set can be described thus: MTT cytotoxicity assay. The following applies: 48 h, MTT, concentrations used for compound 2. (Tetrazolium dyes change colour on reduction, which living cells bring about.)
Data set [6] deals with viral M mRNA. The data set is described as follows: High-throughput smRNA-FISH screen for viral M mRNA processing and nuclear export. The following applies: 2.5 μM, A/WSN/33. In kind it is cell-based, influenza A/WSN/33 virus.
Where [7] appears, read: unidentified influenza virus, WSN, A549, 24 h, read-out: WSN IC50, A549 cells, A/WSN/33 MOI 0.01, 24 h post infection, NP-positive cells.
The mark [8] stands for this setting: unidentified influenza virus, WSN, A549, 24 h, read-out: WSN IC90, A549 cells, A/WSN/33 MOI 0.01, 24 h post infection, NP-positive cells.
Where [9] appears, read: read-out: WSN IC50, A549 cells, A/WSN/33 MOI 0.01, 24 h post infection, NP-positive cells.
The mark [10] stands for this setting: read-out: WSN IC90, A549 cells, A/WSN/33 MOI 0.01, 24 h post infection, NP-positive cells.

Regarding `Brc1ccc(CSc2nc3ccccc3[nH]2)cc1` [Compound 17], the IC50 in data set [1] (setting [7]) was over 50 µM. Besides, the IC90 in data set [1] (setting [8]) is over 50 µM. The same compound came in with a CC50 in data set [2] of over 50 µM. The “24 h MTT CC10” value in data set [3] is 19.818 µM.
In the case of `O=C(CSc1nc2ccccc2[nH]1)NC1CCCCC1` [Compound 10], in data set [1] (setting [7]), the IC50 is over 50 µM. Also, the IC90 in data set [1] (setting [8]) is over 50 µM. The compound further showed a CC50 in data set [2] of over 50 µM. Also, the “24 h MTT CC10” value in data set [3] was over 50 µM.
`COc1ccc2[nH]c(SCC(=O)Nc3ccc(Br)cn3)nc2c1` [Compound 28]: the IC50 in data set [1] (setting [7]) was found to be 46.5 µM. Moreover, in data set [1] (setting [8]), the IC90 stood at 50 µM. Further, the CC50 in data set [2] is over 50 µM. Moreover, the “24 h MTT CC10” value in data set [3] was 7.52 µM.
For `CCn1c(SCC(=O)Nc2ccc(Br)cn2)nc2ccccc21` [Compound 18], the IC50 in data set [1] (setting [7]) was 38.4 µM. Also, the IC90 in data set [1] (setting [8]) was over 50 µM. Moreover, the CC50 in data set [2] is over 50 µM. Moreover, in data set [3], the “24 h MTT CC10” value was determined as 47.499 µM.
On to `COc1ccc(C2C(CC(C)C(=O)Nc3ccc(Br)cn3)=Cc3ccccc32)cc1` (centres unmarked) [Compound 14], for which the IC50 in data set [1] (setting [7]) is over 50 µM. The IC90 in data set [1] (setting [8]) was over 50 µM. In data set [3], the “24 h MTT CC10” value worked out at 15.941 µM and the CC50 is over 50 µM.
Take `NC(=O)CSc1nc2ccccc2[nH]1` [Compound 5]: the IC50 in data set [1] (setting [7]) is over 50 µM. Besides, the IC90 in data set [1] (setting [8]) is over 50 µM. The compound further displayed a CC50 in data set [2] of over 50 µM. For the same compound, in data set [3], the “24 h MTT CC10” value is over 50 µM.
`Cc1ccc(NC(=O)CCc2nc3ccccc3o2)nc1` [Compound 15]: the IC50 in data set [1] (setting [7]) amounted to 30.7 µM. The IC90 in data set [1] (setting [8]) is over 50 µM. In addition, in data set [3], the “24 h MTT CC10” value is over 50 µM and the CC50 is over 50 µM.
On to `C=CCn1c(SCC(=O)Nc2ccc(Br)cn2)nc2ccccc21` [Compound 19], for which, in data set [1] (setting [7]), the IC50 is over 50 µM. In addition, the IC90 in data set [1] (setting [8]) is over 50 µM. The compound further registered a CC50 in data set [2] of over 50 µM. For the same compound, the “24 h MTT CC10” value in data set [3] is 18.984 µM.
Regarding `COc1ccc(-n2c(SC(C)C(=O)Nc3ccc(C)cc3Cl)nc3ccccc32)cc1` (centres unmarked) [JMN3-003, reference compound], in data set [4], the “nuclear export of viral M mRNA” value is “does not inhibit” and the “total M mRNA fluorescence intensity” value is reported as “decreased”.
Regarding ivermectin [reference compound], the “cytotoxicity (cell viability)” value in data set [5] was “positive control for cytotoxicity”.
For `O=C(CSc1nc2ccccc2[nH]1)NCc1ccccc1` [Compound 9], in data set [1] (setting [7]), the IC50 is over 50 µM. Moreover, the IC90 in data set [1] (setting [8]) is over 50 µM. Moreover, the CC50 in data set [2] was over 50 µM. Moreover, the “24 h MTT CC10” value in data set [3] is over 50 µM.
Take `O=C(CSc1nc2ccccc2[nH]1)Nc1ccc(Br)cc1` [Compound 4]: in data set [1] (setting [7]), the IC50 is over 50 µM. Further, the IC90 in data set [1] (setting [8]) was over 50 µM. The same compound gave a CC50 in data set [2] of over 50 µM. In addition, in data set [3], the “24 h MTT CC10” value is over 50 µM.
Turning to `Brc1ccc(CSc2nc3ccccc3[nH]2)nc1` [Compound 23], the IC50 in data set [1] (setting [7]) was over 50 µM. Moreover, the IC90 in data set [1] (setting [8]) is over 50 µM. The CC50 in data set [2] is over 50 µM. Also, the “24 h MTT CC10” value in data set [3] turned out to be 37.461 µM.
As to `Cc1cccc2[nH]c(SCC(=O)Nc3ccc(Br)cn3)nc12` [Compound 3], the IC50 in data set [1] (setting [7]) turned out to be 4.94 µM. The IC90 in data set [1] (setting [8]) came out at 10 µM. The compound also yielded a CC50 in data set [2] of over 50 µM. Moreover, the “24 h MTT CC10” value in data set [3] worked out at 0.683 µM.
For `O=C(CS(=O)(=O)c1nc2ccccc2[nH]1)Nc1ccc(Br)cn1` [Compound 6], in data set [1] (setting [7]), the IC50 turned out to be 22.6 µM. Also, the IC90 in data set [1] (setting [8]) was over 50 µM. In data set [2], this compound yielded a CC50 of over 50 µM. Further, the “24 h MTT CC10” value in data set [3] came to 23.361 µM.
Take `O=C(CSc1nc2cc(F)ccc2[nH]1)Nc1ccc(Br)cn1` [Compound 27]: the IC50 in data set [1] (setting [7]) stood at 16.1 µM. Further, the IC90 in data set [1] (setting [8]) amounted to 18.2 µM. Moreover, the CC50 in data set [2] is over 50 µM. Moreover, the “24 h MTT CC10” value in data set [3] stood at 2.905 µM.
As for `Cc1ccc(NC(=O)CSc2nc3ccccc3[nH]2)nc1` [Compound 20], the IC50 in data set [1] (setting [9]) was over 50 µM. For the same compound, in data set [1] (setting [10]), the IC90 was over 50 µM. In data set [2], this compound returned a CC50 of over 50 µM. Also, the “24 h MTT CC10” value in data set [3] is 7.855 µM.
In the case of `O=C(CSc1nc2ccccc2[nH]1)NCc1ccccn1` [Compound 8], the IC50 in data set [1] (setting [7]) was over 50 µM. For the same compound, the IC90 in data set [1] (setting [8]) is over 50 µM. Further, the CC50 in data set [2] was over 50 µM. Also, the “24 h MTT CC10” value in data set [3] is over 50 µM.
With `O=C(CSc1nc2ccccc2[nH]1)Nc1ccccn1` [Compound 11], in data set [1] (setting [7]), the IC50 was over 50 µM. In addition, the IC90 in data set [1] (setting [8]) was over 50 µM. The same compound returned a CC50 in data set [2] of over 50 µM. The “24 h MTT CC10” value in data set [3] was over 50 µM.
Take `Cc1ccc(NC(=O)CSc2nc3ccccc3[nH]2)nc1` [Compound 24]: in data set [1] (setting [9]), the IC50 was 8.7 µM. Besides, the IC90 in data set [1] (setting [10]) stood at 24.5 µM. Moreover, in data set [3], the “24 h MTT CC10” value worked out at 5.552 µM and the CC50 is over 50 µM.
For the compound `OC[C@H]1O[C@@H](n2cnc3cc(Cl)c(Cl)cc32)[C@H](O)[C@@H]1O` [DRB, 5,6-dichloro-1-β-D-ribofuranosylbenzimidazole], in data set [6], the “viral M mRNA nuclear retention” value is listed as “positive control for viral M mRNA nuclear retention”.
In the case of `CC(Sc1nc2ccccc2[nH]1)C(=O)Nc1ccc(Br)cn1` (centres unmarked) [Compound 12], in data set [1] (setting [7]), the IC50 is over 50 µM. The IC90 in data set [1] (setting [8]) is over 50 µM. In data set [2], the CC50 is over 50 µM. For the same compound, the “24 h MTT CC10” value in data set [3] was over 50 µM.
For `Cn1c(SCC(=O)Nc2ccc(Br)cn2)nc2ccccc21` [Compound 1], in data set [1] (setting [7]), the IC50 worked out at 1.89 µM. For the same compound, the IC90 in data set [1] (setting [8]) came out at 12.1 µM. In data set [2], the CC50 is over 50 µM. Besides, the “24 h MTT CC10” value in data set [3] was found to be 1.417 µM.
`Cc1ccc(NC(=O)CCC2=Nc3ccccc3C2)nc1` [Compound 16]: in data set [1] (setting [7]), the IC50 is 30.9 µM. In addition, in data set [1] (setting [8]), the IC90 was over 50 µM. Besides, in data set [3], the “24 h MTT CC10” value is 7.382 µM and the CC50 was over 50 µM.
For `O=C(CSc1nc2ccccc2[nH]1)Nc1ccc(F)cn1` [Compound 22], the IC50 in data set [1] (setting [7]) was 43.3 µM. Besides, the IC90 in data set [1] (setting [8]) is over 50 µM. In data set [2], the CC50 was over 50 µM. The “24 h MTT CC10” value in data set [3] was 31.688 µM.
Turning to `O=C(C[S+]([O-])c1nc2ccccc2[nH]1)Nc1ccc(Br)cn1` (centres unmarked) [Compound 7], the IC50 in data set [1] (setting [7]) was determined as 11.9 µM. In addition, in data set [1] (setting [8]), the IC90 was over 50 µM. In data set [2], this compound returned a CC50 of over 50 µM. The “24 h MTT CC10” value in data set [3] stood at 31.074 µM.
With `COc1ccc(NC(=O)CSc2nc3ccccc3[nH]2)nc1` [Compound 21], the IC50 in data set [1] (setting [7]) came to 17.6 µM. For the same compound, the IC90 in data set [1] (setting [8]) was 45.4 µM. In data set [2], this compound yielded a CC50 of over 50 µM. For the same compound, the “24 h MTT CC10” value in data set [3] was found to be 4.69 µM.
Turning to `Cc1ccc2[nH]c(SCC(=O)Nc3ccc(Br)cn3)nc2c1` [Compound 26], the IC50 in data set [1] (setting [7]) was determined as 25.5 µM. Besides, in data set [1] (setting [8]), the IC90 is over 50 µM. Moreover, in data set [3], the “24 h MTT CC10” value was determined as 6.797 µM and the CC50 is 49.7 µM.
